Assay results from US4772586A, “Novel derivatives of arginine vasopressin antagonists” (Medical College of Ohio, priority 1986, dated 1988).
Bridges are numbered along the chain shown (N, C = ends). Where no end group is shown, it is not given here.

Legend:
Type in all cases: in vivo
[1] = system: vasopressor response to arginine vasopressin; experiment: Antagonism to the vasopressor response (Anti-VP); conditions: Table 1
Procedure, shortened: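 In vivo antagonism of arginine vasopressin pressor response per Dyckes et al. Effective dose (nmol/kg) is the antagonist dose making the response to 2x agonist units, injected 20 min later, equal that to 1x units. pA2 is the negative log of effective dose divided by 67 ml/kg distribution volume.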

vasopressor response = experiment: Vasopressor (VP) agonistic activity; conditions: Table 1; vasopressor agonism; ^+ = weak partial agonistic activity not clearly related to dose
[2] = system: ethanol-anesthesized water-loaded rats; experiment: Activity as antidiuretic agonists, intravenous injection; conditions: for Agonistic Activities ADH: Table 1, antidiuretic agonism, i.v., ^+ = weak partial agonistic activity not clearly related to dose
Experimental: Activity as antidiuretic agonists was determined by intravenous injection of the compounds being evaluated in ethanol-anesthesized water-loaded rats in accordance with Sawyer, Endocrinology, vol. 63 (1958) at 694. Antagonism of the antidiuretic response to subsequent injections of arginine vasopressin was tested by the method of Sawyer et al., Science, vol. 212 (1981) at 49.

Compound	Anti-VP ED ([1]; effective dose)	Anti-VP pA2 ([1]; estimated in vivo pA2)	Agonistic Activities VP (vasopressor response)	Agonistic Activities ADH [2]	antidiuretic character in vivo ([2]; Table 1 footnote b)
9-desglycine-argoinine vasopressin (CYFQNCPR; disulfide 1-6 (inferred); ends not checked; UniProt P01185 20-27, looked up, fragment) [desGly^9 AVP]	68 ± 16 nmol/kg	6.09 ± 0.10	< 0.05 units/mg	164 ± 4 units/mg	
NC(=O)CC[C@@H]1NC(=O)[C@H](Cc2ccccc2)NC(=O)[C@H](Cc2ccc(O)cc2)NC(=O)[C@@H](N)CSSC[C@@H](C(=O)N2CCC[C@H]2C(=O)N[C@@H](CCCN=C(N)N)C(=O)NCC(N)=O)NC(=O)[C@H](CC(N)=O)NC1=O [AVP, arginine vasopressin]			382 ± 5 units/mg	330 ± 23 units/mg	
deamido-arginine vasopressin (CYFQNCPRG-OH; disulfide 1-6 (inferred); ends not checked; UniProt P01185 20-28, looked up) [AVP-acid, purchased from Bachem, Inc; alternatively, vasopressinoic acid]			< 0.03 units/mg	4.7 ± 0.6 units/mg	antidiuretic agonist in vivo
9-desglycinamide-arginine vasopressin (CYFQNCPR; disulfide 1-6 (inferred); ends not checked; UniProt P01185 20-27, looked up, fragment) [desGly^9 (NH2)AVP]			~ 0.02 units/mg	5.6 ± 1.1 units/mg	
